Test [1] addresses T1, human ferroportin (SLC40A1) (Homo sapiens, UniProt Q9NP59).
T1 sequence (Q9NP59 1-571): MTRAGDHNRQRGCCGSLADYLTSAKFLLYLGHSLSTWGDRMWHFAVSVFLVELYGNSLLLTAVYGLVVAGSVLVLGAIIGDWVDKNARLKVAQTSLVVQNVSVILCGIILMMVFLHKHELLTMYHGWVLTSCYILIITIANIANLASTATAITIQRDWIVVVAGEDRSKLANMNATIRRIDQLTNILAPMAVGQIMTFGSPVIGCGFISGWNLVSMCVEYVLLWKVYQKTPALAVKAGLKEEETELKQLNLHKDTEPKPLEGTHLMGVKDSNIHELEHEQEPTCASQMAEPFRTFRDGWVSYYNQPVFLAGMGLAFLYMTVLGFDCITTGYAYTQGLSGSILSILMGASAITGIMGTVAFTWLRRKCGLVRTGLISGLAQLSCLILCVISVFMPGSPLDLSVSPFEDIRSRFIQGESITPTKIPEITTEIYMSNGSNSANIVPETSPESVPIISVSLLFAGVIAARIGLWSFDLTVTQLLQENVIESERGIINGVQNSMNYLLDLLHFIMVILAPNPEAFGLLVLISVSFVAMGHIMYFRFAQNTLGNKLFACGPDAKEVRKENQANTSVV
In words: FPN activity assay: internalization/degradation of ferroportin-GFP in stably transfected HEK293 cells (decrease in GFP fluorescence). The following applies: compound incubated at least 18 hours. Type of test: cell-based. The method, then: Peptide analogues were tested in vitro for induction of internalization of the human ferroportin protein. Following internalization, the ferroporin protein is degraded. The assay used (FPN activity assay) measures a decrease in fluorescence of the receptor. The cDNA encoding the human ferroportin (SLC40A1) was cloned from a cDNA clone from Origene (NM_014585). The DNA encoding the ferroportin was amplified by PCR using primers also encoding terminal restriction sites for subcloning, but without the termination codon. The ferroportin receptor was subcloned into a mammalian GFP expression vector containing a neomycin (G418) resistance marker in such that the reading frame of the ferroportin was fused in frame with the GFP protein. The fidelity of the DNA encoding the protein was confirmed by DNA sequencing. HEK293 cells were used for transfection of the ferroportin-GFP receptor expression plasmid. The cells were grown according to standard protocol in growth medium and transfected with the plasmids using Lipofectamine (manufacturer's protocol, Invitrogen). The cells stably expressing ferroportin-GFP were selected using G418 in the growth medium (in that only cells that have taken up and incorporated the cDNA expression plasmid survive) and sorted several times on a Cytomation MoFloTM cell sorter to obtain the GFP-positive cells (488 nm/530 nm). The cells were propagated and frozen in aliquots. […] Compound was added to desired final concentration for at least 18 hours in the incubator. […] Compound was added to desired final concentration for at least 18 hours but no more than 24 hours in the incubator. […] The “RI” in RI-Mini-Hepcidin refers to Retro Inverse. A retro inverse peptide is a peptide with a reversed sequence in all D amino acids. An example is that […] becomes […]. The EC50 of these reference compounds for ferroportin internalization/degradation was determined according to the FPN activity assay described above. These peptides served as control standards.

Test [2] addresses T2, ferroportin (Homo sapiens, UniProt Q9NP59).
T2 sequence (Q9NP59 1-571): T1 sequence (Q9NP59 1-571)
In words: T47D cell-based ferroportin internalization assay in presence of 0.5% mouse serum albumin (MSA). The settings on record: T47D cells. The method, then: The potency of the peptides in causing ferroportin internalization was evaluated in a T47D cell-based assay. […] In this internalization assay, the potency of the test peptides was evaluated in presence of serum albumin which is the main protein component in the blood. T47D cells were maintained in RPMI media (containing required amount of fetal bovine serum) and regularly sub-cultured. In preparation for the assay, the cells were seeded in 96-well plates at a density of 80-100 k cells per well in 100 ul volume and allowed to rest overnight. On the next day, test peptides were first prepared in dilution series (10-point series, starting concentration of ˜5 μM, typically 3-4×fold dilution steps), all with 0.5% mouse serum albumin (MSA purified from mouse serum; Sigma, A3139). The test peptide dilution series were allowed to incubate at room temperature for 30 min. Then the media was aspirated from the 96-well cell plate and test peptide dilution series were added. After 1 hr incubation, the media with test peptides was aspirated out and AF647-conjugated detection peptide was added at fixed concentration of 200 nM. The AF647-conjugated detection peptide was previously verified to bind to ferroportin and cause its internalization. The cells were washed again after a 2 hr incubation in preparation for flow cytometry analysis. The Median Fluorescence Intensity (MFI) of the AF647-positive population was measured (after removing dead cells and non-singlets from the analysis). The MFI values were used to generate a dose-response curve and obtain IC50 potencies for the test peptides. The IC50 potencies were calculated by using 4-parameter non-linear fitting function in Graphpad Prism (Table 6A).

Numbered stars: 1 amine (or outer) side, 2 acyl side, 3 side chain; on linkers, the order of the positions; unused ones are H or OH. Bridge positions count the residues as written; N and C are the ends. Square brackets hold non-standard residues; d marks the D form. Side chains are listed from the residue outwards. Peptide text beside a SMILES is read from it. * marks the point of attachment. Dip = N[C@H](C(=O)O)C(c1ccccc1)c1ccccc1; Hag = O=C([C@H](CCC=[*:3])N[*:1])[*:2]; Palmitoyl = CCCCCCCCCCCCCCCC(=O)*; NMeF = CN[C@@H](Cc1ccccc1)C(=O)O; β3hF = N[C@H](CC(=O)O)Cc1ccccc1; Isovaleryl = CC(C)CC(=O)*; Ahx = NCCCCCC(=O)O

What is called IC50 is the concentration needed to halve the response being measured.

For `CCCCCCCCCCCCCCCC(=O)NCCCCCC(=O)NCCCC[C@@H]1NC(=O)[C@H](C)NC(=O)[C@@H]2CCCN2C(=O)[C@H](C(c2ccccc2)c2ccccc2)NC(=O)[C@H](Cc2c[nH]cn2)NC(=O)[C@H]([C@@H](C)O)NC(=O)[C@@H](NC(=O)CC(C)C)CCC=CCC[C@@H](C(=O)N[C@H](CC(N)=O)Cc2ccccc2)NC1=O` [Compd 25] (Isovaleryl-[Hag]TH[Dip]PAK([Ahx-Palmitoyl])[Hag][β3hF]-NH2; staple 1-8), the 50% inhibitory concentration (IC50) in test [1] and in test [2] was 100 to 500 nM each time. As to `CCCCCCCCCCCCCCCC(=O)NCCCCCC(=O)NCCCC[C@H](NC(=O)C[C@H](Cc1ccccc1)NC(=O)[C@H]1CCCC=CCCC[C@@H](NC(=O)CC(C)C)C(=O)N[C@@H]([C@@H](C)O)C(=O)N[C@@H](Cc2c[nH]cn2)C(=O)N[C@@H](C(c2ccccc2)c2ccccc2)C(=O)N2CCC[C@H]2C(=O)N[C@@H](C)C(=O)N[C@@H]([C@@H](C)CC)C(=O)N1)C(=O)N[C@H](CCCCN)C(N)=O` [Compd 73], the figures for the IC50 in test [1] and in test [2] were 100 to 500 nM and over 500 nM, respectively. In the same order, the values of `CCCCCCCCCCCCCCCC(=O)NCCCCCC(=O)NCCCC[C@H](NC(=O)C[C@H](Cc1ccccc1)NC(=O)[C@@H]1CCC=CCC[C@H](NC(=O)CC(C)C)C(=O)N[C@@H](C)C(=O)N[C@@H](Cc2c[nH]cn2)C(=O)N[C@@H](C(c2ccccc2)c2ccccc2)C(=O)N2CCC[C@H]2C(=O)N[C@@H](C)C(=O)N[C@@H]([C@@H](C)CC)C(=O)N1)C(=O)N[C@H](CCCCN)C(N)=O` [Compd 41] (Isovaleryl-[Hag]AH[Dip]PAI[Hag][β3hF]K([Ahx-Palmitoyl])[dK]-NH2; staple 1-8) are 100 to 500 nM and 100 to 500 nM. Consider `CCCCCCCCCCCCCCCC(=O)NCCCCCC(=O)NCCCC[C@H](NC(=O)[C@H](C)NC(=O)[C@@H]1CCC=CCC[C@H](NC(=O)CC(C)C)C(=O)N[C@@H]([C@@H](C)O)C(=O)N[C@@H](Cc2c[nH]cn2)C(=O)N[C@@H](C(c2ccccc2)c2ccccc2)C(=O)N2CCC[C@H]2C(=O)N[C@@H](C)C(=O)N[C@@H]([C@@H](C)CC)C(=O)N1)C(=O)N[C@H](CCCCN)C(N)=O` [Compd 46] (Isovaleryl-[Hag]TH[Dip]PAI[Hag]AK([Ahx-Palmitoyl])[dK]-NH2; staple 1-8), for which the IC50 in test [1] and in test [2] was 100 to 500 nM in each case.

Regarding `CCCCCCCCCCCCCCCC(=O)NCCCCCC(=O)NCCCC[C@H](NC(=O)C[C@H](Cc1ccccc1)NC(=O)[C@H]1CCCC=CCC[C@H](NC(=O)CC(C)C)C(=O)N[C@@H]([C@@H](C)O)C(=O)N[C@@H](Cc2c[nH]cn2)C(=O)N[C@@H](C(c2ccccc2)c2ccccc2)C(=O)N2CCC[C@H]2C(=O)N[C@@H](C)C(=O)N[C@@H]([C@@H](C)CC)C(=O)N1)C(=O)N[C@H](CCCCN)C(N)=O` [Compd 75], the IC50 in test [1] and in test [2] was 10 to 100 nM throughout. Turning to `CCCCCCCCCCCCCCCC(=O)NCCCCCC(=O)NCCCC[C@H](NC(=O)C[C@H](Cc1ccccc1)NC(=O)[C@@H]1CCC=CCC[C@H](NC(=O)CC(C)C)C(=O)N[C@@H]([C@@H](C)O)C(=O)N[C@@H](Cc2c[nH]cn2)C(=O)N[C@@H](C(c2ccccc2)c2ccccc2)C(=O)N2CCC[C@H]2C(=O)N[C@@H](C)C(=O)N[C@@H]([C@@H](C)CC)C(=O)N1)C(=O)N[C@@H](CC(C)(C)C)C(N)=O` [Compd 65], the IC50 in test [1] was in the range of 10 to 100 nM; in test [2], 1 to 10 nM. In the same order, the values of `CCCCCCCCCCCCCCCC(=O)NCCCCCC(=O)NCCCC[C@H](NC(=O)C[C@H](Cc1ccccc1)NC(=O)[C@@H]1CCC=CCCC[C@H](NC(=O)CC(C)C)C(=O)N[C@@H]([C@@H](C)O)C(=O)N[C@@H](Cc2c[nH]cn2)C(=O)N[C@@H](C(c2ccccc2)c2ccccc2)C(=O)N2CCC[C@H]2C(=O)N[C@@H](C)C(=O)N[C@@H]([C@@H](C)CC)C(=O)N1)C(=O)N[C@H](CCCCN)C(N)=O` [Compd 29] are 1 to 10 nM and 1 to 10 nM. Taken in the same sequence, the figures for `CCCCCCCCCCCCCCCC(=O)NCCCCCC(=O)NCCCC[C@H](NC(=O)C[C@H](Cc1ccccc1)NC(=O)[C@H]1CCCC=CCCC[C@H](NC(=O)CC(C)C)C(=O)N[C@@H]([C@@H](C)O)C(=O)N[C@@H](Cc2c[nH]cn2)C(=O)N[C@@H](C(c2ccccc2)c2ccccc2)C(=O)N2CCC[C@H]2C(=O)N[C@@H](C)C(=O)N[C@@H]([C@@H](C)CC)C(=O)N1)C(=O)N[C@H](CCCCN)C(N)=O` [Compd 77] were 1 to 10 nM and 1 to 10 nM. With `CCCCCCCCCCCCCCCC(=O)NCCCCCC(=O)NCCCC[C@H](NC(=O)C[C@H](Cc1ccccc1)NC(=O)[C@@H]1CCC=CCC[C@H](NC(=O)[C@@H]2CCCN2C(=O)[C@@H](NC(=O)[C@H](Cc2c[nH]cn2)NC(=O)[C@@H](NC(=O)[C@H](CCC(=O)O)NC(=O)CC(C)C)[C@@H](C)O)C(c2ccccc2)c2ccccc2)C(=O)N[C@@H]([C@@H](C)CC)C(=O)N1)C(=O)N[C@H](CCCCN)C(N)=O` [Compd 6] (Isovaleryl-ETH[Dip]P[Hag]I[Hag][β3hF]K([Ahx-Palmitoyl])[dK]-NH2; staple 6-8), the IC50 was 10 to 100 nM in test [1] and 1 to 10 nM in test [2]. On to `CCCCCCCCCCCCCCCC(=O)NCCCCCC(=O)NCCCC[C@H](NC(=O)C[C@H](Cc1ccccc1)NC(=O)[C@H]1CCC=CCCC[C@@H](NC(=O)CC(C)C)C(=O)N[C@@H]([C@@H](C)O)C(=O)N[C@@H](Cc2c[nH]cn2)C(=O)N[C@@H](C(c2ccccc2)c2ccccc2)C(=O)N2CCC[C@H]2C(=O)N[C@@H](C)C(=O)N[C@@H]([C@@H](C)CC)C(=O)N1)C(=O)N[C@H](CCCCN)C(N)=O` [Compd 74], for which the IC50 in test [1] is 100 to 500 nM; in test [2] it was over 500 nM. Take `CCCCCCCCCCCCCCCC(=O)NCCCCCC(=O)NCCCC[C@H](NC(=O)C[C@H](Cc1ccccc1)NC(=O)[C@@H]1CCC=CC[C@H](NC(=O)CC(C)C)C(=O)N[C@@H]([C@@H](C)O)C(=O)N[C@@H](Cc2c[nH]cn2)C(=O)N[C@@H](C(c2ccccc2)c2ccccc2)C(=O)N2CCC[C@H]2C(=O)N[C@@H](C)C(=O)N[C@@H]([C@@H](C)CC)C(=O)N1)C(=O)N[C@@H](CCCNC(=N)N)C(N)=O` [Compd 23]: the IC50 in test [1] lay within 10 to 100 nM; in test [2], 1 to 10 nM.

Regarding `CCCCCCCCCCCCCCCC(=O)NCCCCCC(=O)NCCCC[C@H](NC(=O)C[C@H](Cc1ccccc1)NC(=O)[C@@H]1CCC=CCC[C@H](NC(=O)CC(C)C)C(=O)N[C@@H]([C@@H](C)O)C(=O)N(C)[C@@H](Cc2c[nH]cn2)C(=O)N[C@@H](C(c2ccccc2)c2ccccc2)C(=O)N2CCC[C@H]2C(=O)N[C@@H](C)C(=O)N[C@@H]([C@@H](C)CC)C(=O)N1)C(=O)N[C@H](CCCCN)C(N)=O` [Compd 50], in test [2], the IC50 is over 500 nM. The same measure, in the same setting: the same measure for `CCCCCCCCCCCCCCCC(=O)NCCCCCC(=O)NCCCC[C@H](NC(=O)C[C@H](Cc1ccccc1)NC(=O)[C@@H]1CCC=CCC[C@H](NC(=O)CC(C)C)C(=O)N[C@@H]([C@@H](C)O)C(=O)N[C@@H](Cc2c[nH]cn2)C(=O)N(C)[C@@H](Cc2ccccc2)C(=O)N2CCC[C@H]2C(=O)N[C@@H](C)C(=O)N[C@@H]([C@@H](C)CC)C(=O)N1)C(=O)N[C@H](CCCCN)C(N)=O` [Compd 51] (Isovaleryl-[Hag]TH[NMeF]PAI[Hag][β3hF]K([Ahx-Palmitoyl])[dK]-NH2; staple 1-8): over 500 nM.

Values taken from patent US20240209053A1 (Protagonist Therapeutics, Inc., priority 2021, published 2024).
